# Source: patent US11753407B2, “Compounds for treating spinal muscular atrophy” (PTC Therapeutics, Inc., priority 2012, dated 2023)
# Assays:
# [1] = tested on: SMN2 minigene mRNA (SMN2-A minigene) in HEK293H cells; test: SMN2 minigene mRNA splicing RT-qPCR assay in cultured cells; format: cell-based, human; details: Homo sapiens, HEK293-H; concentration increasing full length SMN2 mRNA 1.5-fold relative to vehicle-treated cells; HEK293H cells with SMN2-A minigene, 24 hours, 7-point concentration data; read-out: EC1.5x for production of full length SMN2 mRNA
# Procedure, shortened: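 Potency reflects the concentration that lifts full-length SMN2 minigene mRNA 1.5-fold above vehicle in stably transfected HEK293H cells after 24 h of treatment. Transcript abundance came from RT-qPCR as (1+E)^−Ct, normalized to GAPDH; endogenous SMN1/SMN2 are not detected.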
# [2] = tested on: Smn protein in SMA patient fibroblast cells (GM03813); test: Smn protein assay in cultured cells (SMN HTRF); format: cell-based, human; details: SMA patient fibroblast cells, 48 hours; for EC1.5x for Smn protein expression: 7-point concentration curve, SMN HTRF, concentration producing 1.5 times Smn protein vs DMSO vehicle control; for maximum fold (Fold) increase of Smn protein: 7-point concentration data, fold relative to vehicle control
# Procedure, shortened: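 Smn protein abundance in treated SMA fibroblasts was measured by HTRF after 48 h compound exposure. The reported EC1.5× is the concentration producing 1.5 times vehicle Smn levels.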
Compound,EC (1.5-fold increase) [1] [µM],EC1.5x for Smn protein expression [2],maximum fold (Fold) increase of Smn protein [2],melting point [°C]
"CCCNC1(C)CCN(c2ccc3nc(-c4cc5c(C)nc(C)cn5n4)cc(=O)n3c2)CC1 [Compound 708, 2-(4,6-dimethylpyrazolo[1,5-a]pyrazin-2-yl)-7-[4-methyl-4-(propylamino)piperidin-1-yl]-4H-pyrido[1,2-a]pyrimidin-4-one]",< 0.1,**** (an EC1.5x≤0.3 μM is indicated by four stars (****)),***** (a fold increase >1.65 is indicated by five stars (*****)),181 to 183
"Cc1cn2nc(-c3cc(=O)n4cc(N5CCC(C)(NCCO)CC5)ccc4n3)cc2c(C)n1 [Compound 709, 2-(4,6-dimethylpyrazolo[1,5-a]pyrazin-2-yl)-7-{4-[(2-hydroxyethyl)amino]-4-methylpiperidin-1-yl}-4H-pyrido[1,2-a]pyrimidin-4-one]",< 0.1,**** (an EC1.5x≤0.3 μM is indicated by four stars (****)),***** (a fold increase >1.65 is indicated by five stars (*****)),196 to 198
"Cc1cc(C2CCN(C3CCC3)CC2)cn2c(=O)cc(-c3ccc4nn(C)cc4c3)nc12 [Compound 710, 7-(1-cyclobutylpiperidin-4-yl)-9-methyl-2-(2-methyl-2H-indazol-5-yl)-4H-pyrido[1,2-a]pyrimidin-4-one]",< 0.1,**** (an EC1.5x≤0.3 μM is indicated by four stars (****)),***** (a fold increase >1.65 is indicated by five stars (*****)),232 to 235
"Cc1cc(C2CCN(CCO)CC2)cn2c(=O)cc(-c3ccc4nn(C)cc4c3)nc12 [Compound 711, 7-[1-(2-hydroxyethyl)piperidin-4-yl]-9-methyl-2-(2-methyl-2H-indazol-5-yl)-4H-pyrido[1,2-a]pyrimidin-4-one]",< 0.1,**** (an EC1.5x≤0.3 μM is indicated by four stars (****)),***** (a fold increase >1.65 is indicated by five stars (*****)),216 to 222
"CCCN1CCC(c2cc(C)c3nc(-c4cc5c(C)nc(C)cn5n4)cc(=O)n3c2)CC1 [Compound 712, 2-(4,6-dimethylpyrazolo[1,5-a]pyrazin-2-yl)-9-methyl-7-(1-propylpiperidin-4-yl)-4H-pyrido[1,2-a]pyrimidin-4-one]",< 0.1,**** (an EC1.5x≤0.3 μM is indicated by four stars (****)),***** (a fold increase >1.65 is indicated by five stars (*****)),216 to 223
"Cc1cn2cc(-c3cc(=O)n4cc(N5CCN[C@H](C)C5)ccc4n3)cc(C3CC3)c2n1 [Compound 715, 2-(8-cyclopropyl-2-methylimidazo[1,2-a]pyridin-6-yl)-7-[(3R)-3-methylpiperazin-1-yl]-4H-pyrido[1,2-a]pyrimidin-4-one]",< 0.1,**** (an EC1.5x≤0.3 μM is indicated by four stars (****)),***** (a fold increase >1.65 is indicated by five stars (*****)),246 to 250
"Cc1cn2cc(-c3cc(=O)n4cc(N5CCN[C@@H](C)C5)ccc4n3)cc(C3CC3)c2n1 [Compound 716, 2-(8-cyclopropyl-2-methylimidazo[1,2-a]pyridin-6-yl)-7-[(3S)-3-methylpiperazin-1-yl]-4H-pyrido[1,2-a]pyrimidin-4-one]",< 0.1,*** (an EC1.5× between >0.3 μM and ≤1 μM is indicated by three stars (***)),***** (a fold increase >1.65 is indicated by five stars (*****)),246 to 250
"Cc1cn2cc(-c3cc(=O)n4cc(N5C[C@@H](C)N[C@@H](C)C5)ccc4n3)cc(C3CC3)c2n1 [Compound 717, 2-(8-cyclopropyl-2-methylimidazo[1,2-a]pyridin-6-yl)-7-[(3R,5S)-3,5-dimethylpiperazin-1-yl]-4H-pyrido[1,2-a]pyrimidin-4-one]",0.1 to 0.3,*** (an EC1.5× between >0.3 μM and ≤1 μM is indicated by three stars (***)),***** (a fold increase >1.65 is indicated by five stars (*****)),205 to 209
"Cc1cc(C2CCN(C3CC3)CC2)cn2c(=O)cc(-c3ccc4nn(C)cc4c3)nc12 [Compound 718, 7-(1-cyclopropylpiperidin-4-yl)-9-methyl-2-(2-methyl-2H-indazol-5-yl)-4H-pyrido[1,2-a]pyrimidin-4-one]",< 0.1,*** (an EC1.5× between >0.3 μM and ≤1 μM is indicated by three stars (***)),**** (a fold increase between >1.5 and ≤1.65 is indicated by four stars (****)),226 to 231
"CCN1CCC(c2cc(C)c3nc(-c4ccc5nn(C)cc5c4)cc(=O)n3c2)CC1 [Compound 719, 7-(1-ethylpiperidin-4-yl)-9-methyl-2-(2-methyl-2H-indazol-5-yl)-4H-pyrido[1,2-a]pyrimidin-4-one]",< 0.1,**** (an EC1.5x≤0.3 μM is indicated by four stars (****)),**** (a fold increase between >1.5 and ≤1.65 is indicated by four stars (****)),237 to 241
"Cc1cn2nc(-c3cc(=O)n4cc(N5CCNCC5)cc(C)c4n3)cc2c(C)n1 [Compound 720, 2-(4,6-dimethylpyrazolo[1,5-a]pyrazin-2-yl)-9-methyl-7-(piperazin-1-yl)-4H-pyrido[1,2-a]pyrimidin-4-one]",< 0.1,**** (an EC1.5x≤0.3 μM is indicated by four stars (****)),***** (a fold increase >1.65 is indicated by five stars (*****)),254 to 264
"Cc1cc(C2CCNCC2)cn2c(=O)cc(-c3ccc4nn(C)cc4c3)nc12 [Compound 721, 9-methyl-2-(2-methyl-2H-indazol-5-yl)-7-(piperidin-4-yl)-4H-pyrido[1,2-a]pyrimidin-4-one]",< 0.1,**** (an EC1.5x≤0.3 μM is indicated by four stars (****)),***** (a fold increase >1.65 is indicated by five stars (*****)),211
"Cc1cn2nc(-c3cc(=O)n4cc(OC5CCN(C)CC5)ccc4n3)cc2c(C)n1 [Compound 722, 2-(4,6-dimethylpyrazolo[1,5-a]pyrazin-2-yl)-7-[(1-methylpiperidin-4-yl)oxy]-4H-pyrido[1,2-a]pyrimidin-4-one]",< 0.1,**** (an EC1.5x≤0.3 μM is indicated by four stars (****)),***** (a fold increase >1.65 is indicated by five stars (*****)),249 to 252
"CCCc1nc(C)cn2nc(-c3cc(=O)n4cc(N5CCNCC5)ccc4n3)cc12 [Compound 723, 2-(6-methyl-4-propylpyrazolo[1,5-a]pyrazin-2-yl)-7-(piperazin-1-yl)-4H-pyrido[1,2-a]pyrimidin-4-one]",< 0.1,**** (an EC1.5x≤0.3 μM is indicated by four stars (****)),***** (a fold increase >1.65 is indicated by five stars (*****)),250 to 252
"CCCc1nc(C)cn2nc(-c3cc(=O)n4cc(N5CCN(C)CC5)ccc4n3)cc12 [Compound 724, 7-(4-methylpiperazin-1-yl)-2-(6-methyl-4-propylpyrazolo[1,5-a]pyrazin-2-yl)-4H-pyrido[1,2-a]pyrimidin-4-one]",0.3 to 1,*** (an EC1.5× between >0.3 μM and ≤1 μM is indicated by three stars (***)),***** (a fold increase >1.65 is indicated by five stars (*****)),246 to 248
"CCCc1nc(C)cn2nc(-c3cc(=O)n4cc(N5CCN(CC)CC5)ccc4n3)cc12 [Compound 725, 7-(4-ethylpiperazin-1-yl)-2-(6-methyl-4-propylpyrazolo[1,5-a]pyrazin-2-yl)-4H-pyrido[1,2-a]pyrimidin-4-one]",0.1 to 0.3,*** (an EC1.5× between >0.3 μM and ≤1 μM is indicated by three stars (***)),***** (a fold increase >1.65 is indicated by five stars (*****)),231 to 233
"CCCc1nc(C)cn2nc(-c3cc(=O)n4cc(N5CCN(CCO)CC5)ccc4n3)cc12 [Compound 726, 7-[4-(2-hydroxyethyl)piperazin-1-yl]-2-(6-methyl-4-propylpyrazolo[1,5-a]pyrazin-2-yl)-4H-pyrido[1,2-a]pyrimidin-4-one]",0.3 to 1,** (an EC1.5× between >1 μM and ≤3 μM is indicated by two stars (**)),**** (a fold increase between >1.5 and ≤1.65 is indicated by four stars (****)),225 to 227
